Patent US20220289753A1, “SHP2 INHIBITORS” (IRBM S.P.A., priority 2019, published 2022)

Target: T1, SHP-2 enzyme (Met1-Leu525) (Homo sapiens, UniProt Q06124)
T1 construct: synthetized by Origene, Met1-Leu525, cat #TP750155; purchased Origene TP750155
T1 sequence (Q06124 1-525): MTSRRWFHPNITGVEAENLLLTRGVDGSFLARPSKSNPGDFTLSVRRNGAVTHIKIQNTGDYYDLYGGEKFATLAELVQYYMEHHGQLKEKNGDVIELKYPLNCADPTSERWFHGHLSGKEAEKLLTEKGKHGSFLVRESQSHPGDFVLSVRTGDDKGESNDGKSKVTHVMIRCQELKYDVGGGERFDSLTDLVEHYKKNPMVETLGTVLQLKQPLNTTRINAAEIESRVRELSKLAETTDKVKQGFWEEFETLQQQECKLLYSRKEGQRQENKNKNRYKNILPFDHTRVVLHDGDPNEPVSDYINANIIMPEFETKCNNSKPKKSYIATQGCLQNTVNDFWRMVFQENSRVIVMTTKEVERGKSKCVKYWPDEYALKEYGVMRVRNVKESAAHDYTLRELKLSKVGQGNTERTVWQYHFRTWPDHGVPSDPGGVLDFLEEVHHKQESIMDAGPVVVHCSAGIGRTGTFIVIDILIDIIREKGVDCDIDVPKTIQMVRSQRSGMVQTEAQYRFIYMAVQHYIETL
Assay: SHP2 inhibition enzymatic assay (DiFMUP substrate, IRS1 peptide activation)
Format: biochemical
Conditions: SHP2 wt; activated by 500 nM IRS1 peptide; 75 μM DiFMUP substrate
Method: SHP2 Inhibition Enzymatic Assay
Assay volume of 20 μL/well was assembled in 384 well black polystyrene low-binding microplates (Greiner), using the following buffer: 60 mM HEPES pH 7.2, 75 mM NaCl, 75 mM KCl, 1 mM EDTA pH 8, 0.05% tween-20, 5 mM DTT. The SHP-2 enzyme (synthetized by Origene, Met1-Leu525, cat #TP750155) was used at a final concentration of 0.5 nM.
Briefly, DMSO serially diluted testing compounds were transferred to the bottom of the assay plate. SHP2 was then added together with the IRS1 peptide. 30 minutes post incubation, the DiFMUP substrate was added to the reaction and incubated 30 min at room temperature. […] The fluorescence was detected by a microplate reader (Envision, PerkinElmer) according to the DiFMUP excitation and emission wavelength. The lower the fluorescence the higher the SHP2 inhibition.
The percentage inhibition is fitted against the compound dilutions with a four-parameter logistic regression. The inflection point (i.e. the concentration at which half-maximal inhibition is achieved) is the IC50.

| IC50 | SMILES |
| --- | --- |
| > 3 µM | CC(C)=Cc1ccccc1Sc1cnc2[nH]c(N3CCC(C)(N)CC3)nc2n1 [Example 75, 4-methyl-1-(5-((2-(2-methylprop-1-en-1-yl)phenyl)thio)-1H-imidazo[4,5-b]pyrazin-2-yl)piperidin-4-amine] |
| 0.5 to 3 µM | CC1(N)CCN(c2nc3nc(Sc4cccc5c4C(=O)CC5)cnc3[nH]2)CC1 [Example 76, 7-((2-(4-amino-4-methylpiperidin-1-yl)-1H-imidazo[4,5-b]pyrazin-5-yl)thio)-2,3-dihydro-1H-inden-1-one] |
| < 0.5 µM | CC1(N)CCN(c2nc3nc(Sc4cccc5c4COC5)cnc3[nH]2)CC1 [Example 77, 1-(5-((1,3-dihydroisobenzofuran-4-yl)thio)-1H-imidazo[4,5-b]pyrazin-2-yl)-4-methylpiperidin-4-amine] |
| 0.5 to 3 µM | COC(=O)c1ccccc1Sc1cnc2[nH]c(N3CCC(C)(N)CC3)nc2n1 [Example 78, methyl 2-((2-(4-amino-4-methylpiperidin-1-yl)-1H-imidazo[4,5-b]pyrazin-5-yl)thio)benzoate] |
| 0.5 to 3 µM | OCCN1CCCN(c2nc3nc(Sc4cccnc4C(F)(F)F)cnc3[nH]2)CC1 [Example 79, 2-(4-(5-((2-(trifluoromethyl)pyridin-3-yl)thio)-1H-imidazo[4,5-b]pyrazin-2-yl)-1,4-diazepan-1-yl)ethan-1-ol] |
| 0.5 to 3 µM | CC1(N)CCN(c2nc3nc(Sc4ccncc4)cnc3[nH]2)CC1 [Example 80, 4-methyl-1-(5-(pyridin-4-ylthio)-1H-imidazo[4,5-b]pyrazin-2-yl)piperidin-4-amine] |
| 0.5 to 3 µM | CC1(N)CCN(c2nc3nc(Sc4ccc5ccccc5c4)cnc3[nH]2)CC1 [Example 81, 4-methyl-1-(5-(naphthalen-2-ylthio)-1H-imidazo[4,5-b]pyrazin-2-yl)piperidin-4-amine] |
| > 3 µM | OCCN1CCC(CNc2nc3nc(Sc4cccnc4C(F)(F)F)cnc3[nH]2)CC1 [Example 82, 2-(4-(((5-((2-(trifluoromethyl)pyridin-3-yl)thio)-1H-imidazo[4,5-b]pyrazin-2-yl)amino)methyl)piperidin-1-yl)ethan-1-ol] |
| > 3 µM | O=C1NCC2(CCCN(c3nc4nc(Sc5cccnc5C(F)(F)F)cnc4[nH]3)C2)O1 (centres unmarked) [Example 83, 7-(5-((2-(trifluoromethyl)pyridin-3-yl)thio)-1H-imidazo[4,5-b]pyrazin-2-yl)-1-oxa-3,7-diazaspiro[4.5]decan-2-one] |
| 0.5 to 3 µM | FC(F)(F)c1ncccc1Sc1cnc2[nH]c(NC3CC4(CNC4)C3)nc2n1 [Example 84, N-(2-azaspiro[3.3]heptan-6-yl)-5-((2-(trifluoromethyl)pyridin-3-yl)thio)-1H-imidazo[4,5-b]pyrazin-2-amine] |
| 0.5 to 3 µM | NC1CCCN(c2nc3nc(Sc4cccnc4C(F)(F)F)cnc3[nH]2)CC1 (centres unmarked) [Example 85, 1-(5-((2-(trifluoromethyl)pyridin-3-yl)thio)-1H-imidazo[4,5-b]pyrazin-2-yl)azepan-4-amine] |
| 0.5 to 3 µM | CC(N)C1CN(c2nc3nc(Sc4cccnc4C(F)(F)F)cnc3[nH]2)CCO1 (centres unmarked) [Example 86, 1-(4-(5-((2-(trifluoromethyl)pyridin-3-yl)thio)-1H-imidazo[4,5-b]pyrazin-2-yl)morpholin-2-yl)ethan-1-amine] |
| > 3 µM | CC(C)(CNc1nc2nc(Sc3cccnc3C(F)(F)F)cnc2[nH]1)N1CCOCC1 [Example 87, N-(2-methyl-2-morpholinopropyl)-5-((2-(trifluoromethyl)pyridin-3-yl)thio)-1H-imidazo[4,5-b]pyrazin-2-amine] |
| 0.5 to 3 µM | FC(F)(F)c1ncccc1Sc1cnc2[nH]c(N3C[C@@H]4CC[C@H]3CN4)nc2n1 [Example 90, (1S,4S)-2-(5-((2-(trifluoromethyl)pyridin-3-yl)thio)-1H-imidazo[4,5-b]pyrazin-2-yl)-2,5-diazabicyclo[2.2.2]octane] |
| 0.5 to 3 µM | CC1(N)CCN(c2nc3nc(Sc4nc5ccccc5c(=O)[nH]4)cnc3[nH]2)CC1 [Example 91, 2-((2-(4-amino-4-methylpiperidin-1-yl)-1H-imidazo[4,5-b]pyrazin-5-yl)thio)quinazolin-4(3H)-one] |
| < 0.5 µM | CC1(N)CCN(c2nc3nc(Sc4cccc5ccncc45)cnc3[nH]2)CC1 [Example 92, 1-(5-(isoquinolin-8-ylthio)-1H-imidazo[4,5-b]pyrazin-2-yl)-4-methylpiperidin-4-amine] |

| IC50 | SMILES |
| --- | --- |
| 0.5 to 3 µM | CC1(N)CCN(c2nc3nc(Sc4cccc(S(F)(F)(F)(F)F)c4)cnc3[nH]2)CC1 [Example 93, 4-methyl-1-(5-((3-(pentafluoro-l6-sulfaneyl)phenyl)thio)-1H-imidazo[4,5-b]pyrazin-2-yl)piperidin-4-amine] |
| < 0.5 µM | CC1(N)CCN(c2nc3nc(Sc4cccc(C(=O)O)c4)cnc3[nH]2)CC1 [Example 94, 3-((2-(4-amino-4-methylpiperidin-1-yl)-1H-imidazo[4,5-b]pyrazin-5-yl)thio)benzoic acid] |
| < 0.5 µM | CC1(N)CCN(c2nc3nc(Sc4ccc(C(=O)O)cc4)cnc3[nH]2)CC1 [Example 95, 4-((2-(4-amino-4-methylpiperidin-1-yl)-1H-imidazo[4,5-b]pyrazin-5-yl)thio)benzoic acid] |
| 0.5 to 3 µM | CC1(N)CCN(c2nc3nc(Sc4ccnc5c(C(F)(F)F)cccc45)cnc3[nH]2)CC1 [Example 97] |
| < 0.5 µM | CC1(N)CCN(c2nc3nc(Sc4ccccc4Cl)cnc3[nH]2)CC1 [Example 98, 1-(5-((2-chlorophenyl)thio)-1H-imidazo[4,5-b]pyrazin-2-yl)-4-methylpiperidin-4-amine] |
| < 0.5 µM | CC1(N)CCN(c2nc3nc(Sc4ccc(C(=O)O)cc4Cl)cnc3[nH]2)CC1 [Example 99, 4-((2-(4-amino-4-methylpiperidin-1-yl)-1H-imidazo[4,5-b]pyrazin-5-yl)thio)-3-chlorobenzoic acid] |
| 0.5 to 3 µM | CC1(N)CCN(c2nc3nc(Sc4cccc5ncncc45)cnc3[nH]2)CC1 [Example 100, 4-methyl-1-(5-(quinazolin-5-ylthio)-1H-imidazo[4,5-b]pyrazin-2-yl)piperidin-4-amine] |
| > 3 µM | CC1(N)CCN(c2nc3nc(Sc4ncnc5ccccc45)cnc3[nH]2)CC1 [Example 101, 4-methyl-1-(5-(quinazolin-4-ylthio)-1H-imidazo[4,5-b]pyrazin-2-yl)piperidin-4-amine] |
| > 3 µM | CC1(N)CCN(c2nc3nc(Sc4ccccc4-c4nccs4)cnc3[nH]2)CC1 [Example 102, 4-methyl-1-(5-((2-(thiazol-2-yl)phenyl)thio)-1H-imidazo[4,5-b]pyrazin-2-yl)piperidin-4-amine] |
| < 0.5 µM | CC1(N)CCN(c2nc3nc(Sc4cccc(CC(=O)O)c4)cnc3[nH]2)CC1 [Example 103, 2-(3-((2-(4-amino-4-methylpiperidin-1-yl)-1H-imidazo[4,5-b]pyrazin-5-yl)thio)phenyl)acetic acid] |
| > 3 µM | CC1(N)CCN(c2nc3nc(Sc4ccnc5ccnn45)cnc3[nH]2)CC1 [Example 104, 4-methyl-1-(5-(pyrazolo[1,5-a]pyrimidin-7-ylthio)-1H-imidazo[4,5-b]pyrazin-2-yl)piperidin-4-amine] |
| 0.5 to 3 µM | CC1(N)CCN(c2nc3nc(Sc4ccnc5ncccc45)cnc3[nH]2)CC1 [Example 105, 1-(5-((1,8-naphthyridin-4-yl)thio)-1H-imidazo[4,5-b]pyrazin-2-yl)-4-methylpiperidin-4-amine] |
| > 3 µM | Cc1cc(Sc2cnc3[nH]c(N4CCC(C)(N)CC4)nc3n2)c2ccccc2n1 [Example 106, 4-methyl-1-(5-((2-methylquinolin-4-yl)thio)-1H-imidazo[4,5-b]pyrazin-2-yl)piperidin-4-amine] |
| > 3 µM | Nc1cnc2c(c1)CN(c1nc3nc(Sc4cccnc4C(F)(F)F)cnc3[nH]1)CC2 [Example 108, 6-(5-((2-(trifluoromethyl)pyridin-3-yl)thio)-1H-imidazo[4,5-b]pyrazin-2-yl)-5,6,7,8-tetrahydro-1,6-naphthyridin-3-amine] |
| > 3 µM | NC1CCC2OC1CC2Nc1nc2nc(Sc3cccnc3C(F)(F)F)cnc2[nH]1 (centres unmarked) [Example 109, N6-(5-((2-(trifluoromethyl)pyridin-3-yl)thio)-1H-imidazo[4,5-b]pyrazin-2-yl)-8-oxabicyclo[3.2.1]octane-2,6-diamine] |
| > 3 µM | FC(F)(F)c1ncccc1Sc1cnc2[nH]c(NCC3CCNCC3)nc2n1 [Example 110, N-(piperidin-4-ylmethyl)-5-((2-(trifluoromethyl)pyridin-3-yl)thio)-1H-imidazo[4,5-b]pyrazin-2-amine] |
